Results from the NIST ThermoML archive (doi:10.1016/j.tca.2010.09.010).

Details: Crystal, TG

[Cd+2].[I-].[I-] [cadmium iodide (CdI2)]
Details | vapor or sublimation pressure [kPa]
740 K | 0.2888
745 K | 0.3252
750 K | 0.3668
755 K | 0.4124
760 K | 0.4631
765 K | 0.5198
770 K | 0.5826
